We go through one molecule from patent publication US12698265B2, “Plant extracts enriched with ipolamiide derivatives as immunosuppressants for treating immunological disorders” (priority 2017, dated 2026).

For assay [1], the system named is CD8+ T cells activated by αCD3/CD28. The assay can be described thus: Proliferation of CD8+ T cells activated by αCD3/CD28 (BrdU incorporation, Biotrak ELISA). To be noted: 3, 10 and 30 μM (extract concentration expressed in ipolamiide); human CD8+ T cells from PBMCs; FIG. 2A. Type of assay: cell-based. The procedure:
(§1) FIG. 2—Effect of the aqueous extract of Stachytarpheta cayennensis (3, 10 and 30 μM, concentration expressed in ipolamiide) and isolated ipolamiide (3, 10 and 30 μM) on the proliferation of CD8+ T cells activated by αCD3/CD28 (A) and IFNγ production (B). The effect of the pool of compounds (IV to VIII) and the five novel isolated compounds (IV to VIII) generated after the acid hydrolysis of ipolamiide (30 μM) was also evaluated in the same experiments, proliferation of CD8+ T cells activated by αCD3/CD28 (C) and IFNγ production (D). Tacrolimus (0.5 μM) was used as the positive control for all experiments. The data are the mean±SD of three replicates.
(§2) The extract of Stachytarpheta cayennensis, ipolamiide and derivatives were studied in an experimental in vitro immunological model involving CD8+ T cells and IFNγ. […]
(§3) Peripheral blood mononuclear cells (PBMCs) from healthy volunteers were isolated from leukocyte layers by Ficoll-Hystopaque centrifugation. […] Specifically, it was evaluated the incorporation of BrdU through the Biotrak ELISA System (GE Healthcare, RPN250) per the manufacturer's instructions. The methodology for quantification of interferon gamma comprised the use of the Human IFNγ ELISA Ready-SET-Go kit (eBiosciences 88-7316-88) and followed the manufacturer's instructions. […]
(In general: Dividing cells build labelled thymidine or BrdU into new DNA.)

In a further assay the test system is IFNγ. The assay can be described thus: IFNγ production by αCD3/CD28-activated CD8+ T cells (Human IFNγ ELISA). Type of assay: cell-based. To be noted: 3, 10 and 30 μM; human CD8+ T cells activated with αCD3/CD28; FIG. 2B. The procedure:
as §1, §2, §3
On the technique in general: In an ELISA, binding on a coated surface is turned into a signal by an enzyme label.

Take `COC(=O)C1=CO[C@@H](O[C@@H]2O[C@H](CO)[C@@H](O)[C@H](O)[C@H]2O)[C@@H]2[C@@](C)(O)CC[C@]12O` [ipolamiide]: the “activation / proliferation of CD8+ T cells induced by αCD3/CD28” value in assay [1] was “had no effect”. In addition, the “secretion of IFNγ” value with IFNγ is “had no effect”.
